Results published in patent publication US12590953B2, “Methods for screening cereblon modifying compounds” (CELGENE CORPORATION, priority 2018, dated 2026).
Peptide text beside a SMILES is read from it. * marks the point of attachment. Cbz = O=C(OCc1ccccc1)*

Legend:
SALL4 = target: T1, SALL4 (Homo sapiens, UniProt Q96SW2+Q9UJQ4); assay: SALL4 protein level in human iPS cells, immunoblot; type: cell-based; conditions: human iPS cells; 1 μM MLN4924 or 10 μM MG132 for 6 hours with thalidomide
T1 construct: host or cells: human iPS cells (CRBN wild-type and CRBN knock-out)
T1 sequence (Q9UJQ4 whole entry): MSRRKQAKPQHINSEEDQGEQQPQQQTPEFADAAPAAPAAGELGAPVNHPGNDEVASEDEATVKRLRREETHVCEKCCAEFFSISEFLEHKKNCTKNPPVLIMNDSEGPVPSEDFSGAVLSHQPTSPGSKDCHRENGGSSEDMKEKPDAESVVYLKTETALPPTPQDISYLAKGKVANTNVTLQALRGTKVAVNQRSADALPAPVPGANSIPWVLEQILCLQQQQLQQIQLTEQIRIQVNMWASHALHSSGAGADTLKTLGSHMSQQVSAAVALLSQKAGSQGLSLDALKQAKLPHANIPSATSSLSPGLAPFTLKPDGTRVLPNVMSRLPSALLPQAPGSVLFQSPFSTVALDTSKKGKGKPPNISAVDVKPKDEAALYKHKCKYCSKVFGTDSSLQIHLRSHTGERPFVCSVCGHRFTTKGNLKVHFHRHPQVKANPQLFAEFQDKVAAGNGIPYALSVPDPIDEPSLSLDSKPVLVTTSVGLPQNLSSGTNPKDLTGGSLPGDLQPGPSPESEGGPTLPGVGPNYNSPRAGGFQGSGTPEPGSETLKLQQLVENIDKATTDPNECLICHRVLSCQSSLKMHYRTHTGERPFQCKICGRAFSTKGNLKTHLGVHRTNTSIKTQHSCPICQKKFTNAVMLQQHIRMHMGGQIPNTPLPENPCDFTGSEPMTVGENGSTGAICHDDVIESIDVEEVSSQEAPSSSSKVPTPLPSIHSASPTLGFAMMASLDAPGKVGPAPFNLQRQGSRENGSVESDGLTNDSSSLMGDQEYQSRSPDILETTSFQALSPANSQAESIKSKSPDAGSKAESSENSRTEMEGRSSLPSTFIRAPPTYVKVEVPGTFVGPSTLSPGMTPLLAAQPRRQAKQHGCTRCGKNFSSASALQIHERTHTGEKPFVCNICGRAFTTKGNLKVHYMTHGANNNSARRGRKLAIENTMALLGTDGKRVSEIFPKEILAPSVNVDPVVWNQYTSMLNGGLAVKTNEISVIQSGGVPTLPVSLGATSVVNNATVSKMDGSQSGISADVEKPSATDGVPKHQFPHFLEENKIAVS
T1 sequence (Q96SW2 whole entry): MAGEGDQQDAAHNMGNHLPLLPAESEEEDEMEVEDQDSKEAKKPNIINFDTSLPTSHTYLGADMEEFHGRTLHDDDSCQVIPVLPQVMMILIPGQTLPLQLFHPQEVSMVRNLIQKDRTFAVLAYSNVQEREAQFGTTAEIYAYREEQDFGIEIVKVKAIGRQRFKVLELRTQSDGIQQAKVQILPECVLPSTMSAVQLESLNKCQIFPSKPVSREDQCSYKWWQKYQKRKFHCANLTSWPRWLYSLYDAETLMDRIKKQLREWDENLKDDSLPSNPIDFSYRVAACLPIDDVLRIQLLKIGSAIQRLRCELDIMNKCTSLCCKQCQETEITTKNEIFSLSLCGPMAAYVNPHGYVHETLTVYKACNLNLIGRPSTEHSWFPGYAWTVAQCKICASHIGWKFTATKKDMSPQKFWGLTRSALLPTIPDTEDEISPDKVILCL
T1 sequence (Q16531 whole entry partner): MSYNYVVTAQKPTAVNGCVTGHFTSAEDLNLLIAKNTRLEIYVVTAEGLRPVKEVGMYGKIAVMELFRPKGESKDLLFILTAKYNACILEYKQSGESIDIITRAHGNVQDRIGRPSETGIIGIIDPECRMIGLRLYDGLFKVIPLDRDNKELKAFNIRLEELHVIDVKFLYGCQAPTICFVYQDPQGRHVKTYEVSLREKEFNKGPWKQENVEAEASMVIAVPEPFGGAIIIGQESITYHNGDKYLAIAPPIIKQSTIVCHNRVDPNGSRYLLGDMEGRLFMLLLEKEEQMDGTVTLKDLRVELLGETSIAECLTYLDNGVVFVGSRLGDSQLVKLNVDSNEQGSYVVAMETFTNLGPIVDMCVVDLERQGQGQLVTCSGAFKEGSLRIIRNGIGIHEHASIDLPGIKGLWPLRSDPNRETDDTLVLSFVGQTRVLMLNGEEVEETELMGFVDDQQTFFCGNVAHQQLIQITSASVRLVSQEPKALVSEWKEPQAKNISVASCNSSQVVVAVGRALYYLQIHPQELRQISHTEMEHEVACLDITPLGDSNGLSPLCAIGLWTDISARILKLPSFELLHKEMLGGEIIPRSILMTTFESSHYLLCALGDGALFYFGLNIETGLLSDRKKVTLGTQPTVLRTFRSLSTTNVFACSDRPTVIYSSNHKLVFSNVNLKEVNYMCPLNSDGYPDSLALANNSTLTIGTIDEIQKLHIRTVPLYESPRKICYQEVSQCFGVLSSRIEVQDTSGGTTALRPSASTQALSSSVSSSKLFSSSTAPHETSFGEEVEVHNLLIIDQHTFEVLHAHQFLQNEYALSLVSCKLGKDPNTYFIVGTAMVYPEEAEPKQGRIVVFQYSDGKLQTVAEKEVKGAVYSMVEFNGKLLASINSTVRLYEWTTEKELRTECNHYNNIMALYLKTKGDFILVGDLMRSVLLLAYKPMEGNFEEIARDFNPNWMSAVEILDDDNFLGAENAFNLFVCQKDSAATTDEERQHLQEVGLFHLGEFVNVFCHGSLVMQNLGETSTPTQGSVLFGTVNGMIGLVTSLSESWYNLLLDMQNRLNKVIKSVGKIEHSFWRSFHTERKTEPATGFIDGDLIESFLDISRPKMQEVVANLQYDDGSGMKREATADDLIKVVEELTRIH
Method: Immunoblot analysis of whole cell lysates of CRBN wild-type (WT) and CRBN knock-out (−/−) human iPS cells was performed. Cells were treated with DMSO vehicle control (−) or thalidomide (Thal) at indicated concentrations for 16 hours (n=4, biological replicates).
Immunoblot analysis of whole cell lysates of human iPS cells treated with DMSO (−) or Thal (+) in the presence or absence of 1 μM MLN4924 or 10 μM MG132 for 6 hours were performed (n=2, biological replicates).
Human iPS cell lines ACS-1019 and ACS-1011 (derived from healthy donors) were obtained from ATCC. The hiPSCs were maintained in mTESR-1 medium (Stem Cell Technologies) in cell culture plates coated with a thin layer of Matrigel (BD Biosciences) incubated at 37° C. in a humidified 5% CO2 incubator according to the manufacturer's instruction. Cells were split through mechanic passaging with a glass pipet and enzymatically digestion with Dispase or Accutase every 2 to 3 days.
Human iPSCs, ACS-1019 was transduced with lentiviral vectors expressing CRISPR-Cas9 and small guide RNA targeting cereblon for 4 days. The resulting colonies were amplified and screened for cereblon knockout by immunoblot analysis with anti-CRBN65 antibody (Celgene).

ZFP91 = target: T2, ZFP91 (Homo sapiens, UniProt Q96JP5+Q96SW2); assay: Degradation of ZFP91 in Lenti-x 293 cells (control substrate); type: cell-based; conditions: Lenti-x 293 cell lines expressing cereblon
T2 construct: endogenous in cells; host or cells: Lenti-x 293 cell line with CRISPR-cas9 cereblon knock-out, transfected with GST-cereblon
T2 sequence (Q96JP5 2-570 limits assumed): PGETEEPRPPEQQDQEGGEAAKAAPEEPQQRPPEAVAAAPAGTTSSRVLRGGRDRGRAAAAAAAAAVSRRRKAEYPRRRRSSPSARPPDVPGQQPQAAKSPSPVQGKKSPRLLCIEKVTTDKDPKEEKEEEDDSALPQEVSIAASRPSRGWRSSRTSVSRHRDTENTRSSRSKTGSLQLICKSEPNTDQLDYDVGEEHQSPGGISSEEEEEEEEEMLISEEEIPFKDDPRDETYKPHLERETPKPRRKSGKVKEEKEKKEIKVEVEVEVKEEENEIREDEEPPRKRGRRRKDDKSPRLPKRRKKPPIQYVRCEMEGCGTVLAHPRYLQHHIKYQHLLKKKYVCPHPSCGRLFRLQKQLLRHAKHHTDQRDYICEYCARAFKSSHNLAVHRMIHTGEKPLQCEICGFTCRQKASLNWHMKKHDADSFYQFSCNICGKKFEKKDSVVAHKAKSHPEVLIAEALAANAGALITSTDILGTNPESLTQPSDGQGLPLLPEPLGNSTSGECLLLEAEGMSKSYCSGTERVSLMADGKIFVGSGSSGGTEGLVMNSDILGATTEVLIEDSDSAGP
T2 sequence (Q96SW2 whole entry): as the sequence (Q96SW2 whole entry) above
T2 sequence (Q16531 whole entry partner): as the sequence (Q16531 whole entry partner) above

[1] = tested on: SALL4 binding to cereblon; type: cell-based, human
Method: Binding of full length SALL4 to cereblon in cells was then tested by co-immunoprecipitation (see FIG. 3). HA-tagged WT, G416A, or G600A SALL4 was immunoprecipitated from cells, and the level of co-purifying cereblon was assessed by western blot. Briefly, a Lenti-x 293 cell line with a CRISPR-cas9 knock-out of cereblon and stable expression of HA-tagged SALL4 or SALL4 mutants was transfected with either GST-cereblon or empty vector. […] The amount of co-purifying GST-cereblon was then assessed by western blot.

[2] = target: T3, endogenous SALL4 in NCCIT, NETRA-2 c1.D1 and AN3-CA cancer cell lines (Homo sapiens, UniProt Q96SW2+Q9UJQ4); assay: Degradation of endogenous SALL4 in cancer cell lines, western blot; type: cell-based; conditions: 16 hour treatment; anti-SALL4 western blot
T3 construct: endogenous in cells; host or cells: NCCIT, NETRA-2 c1.D1 and AN3-CA cancer cell lines

Row | Binding of G416A SALL4 to cereblon ([1]; HA-tagged G416A SALL4, anti-HA pull-down) | Compound | Effect on thalidomide-induced reduction in SALL4 protein levels (SALL4) | ZFP91 degradation (ZFP91) | Binding of G600A SALL4 to cereblon ([1]; HA-tagged G600A SALL4, anti-HA pull-down) | Binding of WT SALL4 to cereblon (co-purifying GST-cereblon, western blot) ([1]; HA-tagged WT SALL4, anti-HA pull-down) | Degradation of endogenous SALL4 [2]
1 |  | CC(C)C[C@@H](C=O)NC(=O)[C@H](CC(C)C)NC(=O)[C@H](CC(C)C)NC(=O)OCc1ccccc1 [MG132] (Cbz-Leu-Leu-Leu-aldehyde) | prevented |  |  |  | 
2 |  | NS(=O)(=O)OC[C@@H]1C[C@@H](n2ccc3c(N[C@H]4CCc5ccccc54)ncnc32)C[C@@H]1O [MLN4924] | prevented |  |  |  | 
3 | disrupted the binding significantly | Nc1cccc2c1C(=O)N(C1CCC(=O)NC1=O)C2=O (stereo not shown) [pomalidomide] |  | exhibited compound-dependent degradation in all cell lines expressing cereblon | strong, compound-dependent binding to cereblon | strong, compound-dependent binding to cereblon | Significant compound-dependent degradation of endogenous SALL4 was observed
